Reference: US20250248998A1, “LRRK2 Inhibitors” (Brenig Therapeutics, Inc., priority 2022, published 2025)

Tests used:
LRRK2 WT = LRRK2 WT (Homo sapiens, UniProt Q5S007); experiment: Cell-based NanoBRET target engagement assay in HEK293 cells transfected with LRRK2 WT-NanoLuc fusion vector; parameters: expressed in transfected cells; host or cells: HEK293 (ATCC); conditions: compound treatment 1 h
Method: (§1) Example C. Cell-Based NanoBRET Target Engagement Assay in 11EK293 Cells Transiently Transfected with LRRK2 WT- or LRRK2 (G2019S)-Nano Luc Fusion Vector
(§2) H1EK293 (ATCC) cells were transfected with […] LRRK2 WT or LRRK2 (G2019S) and 9 μg transfection carrier DNA. The transfected cells were treated with the compounds (starting at 1 μM, 10-dose with 3-fold dilution) and reference compounds CEP-701 or Staurosporine (starting at 1 μM, 10-dose with 3-fold dilution); compound treatment time: 1 h. LRRK2 WT and LRRK2 (G2019S) target engagement was measured by NanoBRET assay. Curve fits were performed only when % NanoBret signal at the highest concentration of compounds was less than […]. Assay format: 384-well format, 4000 cells/well. The IC50 values are shown in Table C, wherein “A” corresponds to IC50≤50.0 nM, “B” corresponds to 50.0 nM≤IC50<100.0 nM, “C” corresponds to 100.0 nM≤IC50.

LRRK2[G2019S] = LRRK2[G2019S] (Homo sapiens, UniProt Q5S007, G2019S); experiment: Cell-based NanoBRET target engagement assay in HEK293 cells transfected with LRRK2 (G2019S)-NanoLuc fusion vector; parameters: expressed in transfected cells; host or cells: HEK293 (ATCC); conditions: compound treatment 1 h
Chain of LRRK2[G2019S] (Q5S007 whole entry G2019S, the tested form may be a part): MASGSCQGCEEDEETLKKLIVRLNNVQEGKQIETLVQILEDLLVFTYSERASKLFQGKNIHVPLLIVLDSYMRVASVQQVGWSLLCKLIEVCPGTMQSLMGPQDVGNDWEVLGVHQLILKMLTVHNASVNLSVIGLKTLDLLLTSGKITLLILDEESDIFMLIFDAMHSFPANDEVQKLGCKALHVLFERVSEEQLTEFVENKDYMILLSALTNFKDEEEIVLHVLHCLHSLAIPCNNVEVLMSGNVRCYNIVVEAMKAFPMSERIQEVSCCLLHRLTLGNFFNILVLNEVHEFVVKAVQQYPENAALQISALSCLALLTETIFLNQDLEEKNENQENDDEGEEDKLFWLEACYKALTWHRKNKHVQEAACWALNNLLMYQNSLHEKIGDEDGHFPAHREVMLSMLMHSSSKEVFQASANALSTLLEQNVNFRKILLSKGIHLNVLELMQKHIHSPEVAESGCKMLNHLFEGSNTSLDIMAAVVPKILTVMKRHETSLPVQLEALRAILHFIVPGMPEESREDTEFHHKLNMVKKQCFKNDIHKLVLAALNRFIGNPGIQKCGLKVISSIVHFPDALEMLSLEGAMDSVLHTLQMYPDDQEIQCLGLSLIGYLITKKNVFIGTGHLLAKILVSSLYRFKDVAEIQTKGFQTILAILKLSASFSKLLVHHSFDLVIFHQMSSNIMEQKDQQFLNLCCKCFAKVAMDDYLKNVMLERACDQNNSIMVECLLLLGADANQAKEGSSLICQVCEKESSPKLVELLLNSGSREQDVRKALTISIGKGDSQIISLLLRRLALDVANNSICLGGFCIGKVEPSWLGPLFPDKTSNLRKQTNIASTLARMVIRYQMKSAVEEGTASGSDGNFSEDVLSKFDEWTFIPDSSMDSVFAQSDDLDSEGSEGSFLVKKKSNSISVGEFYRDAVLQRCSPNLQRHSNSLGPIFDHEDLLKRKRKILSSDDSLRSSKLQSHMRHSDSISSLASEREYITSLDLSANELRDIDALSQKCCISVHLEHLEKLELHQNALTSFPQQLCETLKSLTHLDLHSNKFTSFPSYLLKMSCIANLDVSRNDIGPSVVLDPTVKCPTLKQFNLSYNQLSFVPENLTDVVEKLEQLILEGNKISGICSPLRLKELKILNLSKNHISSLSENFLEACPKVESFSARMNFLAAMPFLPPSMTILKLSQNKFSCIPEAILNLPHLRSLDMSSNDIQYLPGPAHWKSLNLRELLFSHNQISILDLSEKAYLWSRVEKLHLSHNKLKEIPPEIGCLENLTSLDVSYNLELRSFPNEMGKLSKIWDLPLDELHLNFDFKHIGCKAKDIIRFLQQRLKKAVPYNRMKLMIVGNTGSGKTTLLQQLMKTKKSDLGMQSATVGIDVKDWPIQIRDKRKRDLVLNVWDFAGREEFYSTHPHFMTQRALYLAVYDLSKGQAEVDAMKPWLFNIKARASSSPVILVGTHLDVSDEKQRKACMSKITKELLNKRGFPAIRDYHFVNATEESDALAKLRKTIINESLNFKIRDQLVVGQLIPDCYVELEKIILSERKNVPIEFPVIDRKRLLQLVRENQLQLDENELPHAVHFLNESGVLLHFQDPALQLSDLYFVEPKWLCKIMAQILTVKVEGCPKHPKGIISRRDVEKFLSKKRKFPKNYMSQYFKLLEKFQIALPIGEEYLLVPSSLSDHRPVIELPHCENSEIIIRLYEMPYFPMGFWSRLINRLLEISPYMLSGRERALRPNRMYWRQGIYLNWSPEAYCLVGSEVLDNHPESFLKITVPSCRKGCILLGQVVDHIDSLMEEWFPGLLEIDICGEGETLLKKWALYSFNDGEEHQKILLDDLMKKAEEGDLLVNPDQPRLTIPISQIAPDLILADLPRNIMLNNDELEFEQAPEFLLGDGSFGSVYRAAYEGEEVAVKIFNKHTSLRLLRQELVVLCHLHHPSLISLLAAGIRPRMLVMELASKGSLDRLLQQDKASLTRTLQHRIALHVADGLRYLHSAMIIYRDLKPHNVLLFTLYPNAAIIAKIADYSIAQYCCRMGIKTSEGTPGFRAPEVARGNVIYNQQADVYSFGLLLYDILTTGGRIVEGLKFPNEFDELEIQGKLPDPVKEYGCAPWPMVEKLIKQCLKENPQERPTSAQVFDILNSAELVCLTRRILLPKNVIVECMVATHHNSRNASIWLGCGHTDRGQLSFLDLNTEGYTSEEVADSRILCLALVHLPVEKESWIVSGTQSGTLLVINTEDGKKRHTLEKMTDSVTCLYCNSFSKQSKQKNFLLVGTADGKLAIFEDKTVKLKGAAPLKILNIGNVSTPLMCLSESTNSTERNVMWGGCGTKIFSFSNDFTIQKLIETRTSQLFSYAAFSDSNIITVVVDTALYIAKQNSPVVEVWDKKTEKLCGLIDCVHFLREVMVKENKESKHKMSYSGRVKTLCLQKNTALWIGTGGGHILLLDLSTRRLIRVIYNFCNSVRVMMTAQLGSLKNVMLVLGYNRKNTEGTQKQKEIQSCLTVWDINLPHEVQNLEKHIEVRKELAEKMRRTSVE
Method: as §1, §2

Chain of LRRK2 WT (Q5S007 whole entry, the tested form may be a part): as the sequence (Q5S007 whole entry G2019S, the tested form may be a part) above, with S2019G counted along it

IC50 (LRRK2 WT) [nM]	IC50 (LRRK2[G2019S]) [nM]	Structure (SMILES)
≤ 50	≤ 50	CC1(Oc2ccc3[nH]nc(-c4cc(N5CCOCC6(CC6)C5)c(=O)n(C5CC5)n4)c3c2)CC1 [Compound 53, 2-cyclopropyl-6-[5-(1-methylcyclopropoxy)-1H-indazol-3-yl]-4-(5-oxa-8-azaspiro[2.6]nonan-8-yl)pyridazin-3-one]
50 to 100	≤ 50	Cn1nc(-c2n[nH]c3ccc(OC4(C)CC4)cc23)cc(N2CCCOC(C)(C)C2)c1=O [Compound 73, 4-(2,2-dimethyl-1,4-oxazepan-4-yl)-2-methyl-6-[5-(1-methylcyclopropoxy)-1H-indazol-3-yl]pyridazin-3-one]
≤ 50	≤ 50	Cn1nc(-c2n[nH]c3ccc(OC4(C)CC4)cc23)cc(N2CCOC(CO)CC2)c1=O (centres unmarked) [Compound 92, 4-[7-(hydroxymethyl)-1,4-oxazepan-4-yl]-2-methyl-6-[5-(1-methylcyclopropoxy)-1H-indazol-3-yl]pyridazin-3-one]
≤ 50	≤ 50	Cn1nc(-c2n[nH]c3ccc(OC4(C)CC4)cc23)cc(N2CCCOCC2)c1=O [Compound 76, 2-methyl-6-[5-(1-methylcyclopropoxy)-1H-indazol-3-yl]-4-(1,4-oxazepan-4-yl)pyridazin-3-one]
≤ 50	≤ 50	Cn1nc(-c2n[nH]c3ccc(OC4(C)CC4)cc23)cc(N2CCNC(C(F)(F)F)CC2)c1=O (centres unmarked) [Compound 74, 2-methyl-6-[5-(1-methylcyclopropoxy)-1H-indazol-3-yl]-4-[5-(trifluoromethyl)-1,4-diazepan-1-yl]pyridazin-3-one]
≥ 100	≥ 100	Cn1nc(-c2n[nH]c3ccc(OC4(C)CC4)cc23)cc(N2CCNCC(C)(O)C2)c1=O (centres unmarked) [Compound 93, 4-(6-hydroxy-6-methyl-1,4-diazepan-1-yl)-2-methyl-6-[5-(1-methylcyclopropoxy)-1H-indazol-3-yl]pyridazin-3-one]
≤ 50	≤ 50	CC1CCN(c2cc(-c3n[nH]c4ccc(OC5(C)CC5)cc34)nn(C)c2=O)CCC1O (centres unmarked) [Compound 78, 4-(4-hydroxy-5-methyl-azepan-1-yl)-2-methyl-6-[5-(1-methylcyclopropoxy)-1H-indazol-3-yl]pyridazin-3-one]
50 to 100	≤ 50	CN1CCN(c2cc(-c3n[nH]c4ccc(OC5(C)CC5)cc34)nn(C)c2=O)CC(F)(F)C1 [Compound 64, 4-(6,6-difluoro-4-methyl-1,4-diazepan-1-yl)-2-methyl-6-[5-(1-methylcyclopropoxy)-1H-indazol-3-yl]pyridazin-3-one]
≤ 50	≤ 50	Cn1nc(-c2n[nH]c3ccc(OC4(C)CC4)cc23)cc(N2CCOCC(C)(O)C2)c1=O (centres unmarked) [Compound 90, 4-(6-hydroxy-6-methyl-1,4-oxazepan-4-yl)-2-methyl-6-[5-(1-methylcyclopropoxy)-1H-indazol-3-yl]pyridazin-3-one]
≤ 50	≤ 50	Cn1nc(-c2n[nH]c3ccc(OC4(C)CC4)cc23)cc(N2CC(F)C3(CC3)C2)c1=O (centres unmarked) [Compound 57, 4-(7-fluoro-5-azaspiro[2.4]heptan-5-yl)-2-methyl-6-[5-(1-methylcyclopropoxy)-1H-indazol-3-yl]pyridazin-3-one]
≤ 50	≤ 50	Cn1nc(-c2n[nH]c3ccc(OC4(C)CC4)cc23)cc(N2CCCCC(CO)C2)c1=O (centres unmarked) [Compound 75, 4-[3-(hydroxymethyl)azepan-1-yl]-2-methyl-6-[5-(1-methylcyclopropoxy)-1H-indazol-3-yl]pyridazin-3-one]
≤ 50	≤ 50	Cn1nc(-c2n[nH]c3ccc(OC4(C)CC4)cc23)cc(N2CCCC(C)(O)CC2)c1=O (centres unmarked) [Compound 79, 4-(4-hydroxy-4-methyl-azepan-1-yl)-2-methyl-6-[5-(1-methylcyclopropoxy)-1H-indazol-3-yl]pyridazin-3-one]
≤ 50	≤ 50	CC1(Oc2ccc3[nH]nc(-c4cc(N5CC(C)(C)C6COCC65)c(=O)n(C5CC5)n4)c3c2)CC1 (centres unmarked) [Compound 49, 2-cyclopropyl-4-(3,3-dimethyl-3a,4,6,6a-tetrahydro-2H-furo[3,4-b]pyrrol-1-yl)-6-[5-(1-methylcyclopropoxy)-1H-indazol-3-yl]pyridazin-3-one]
≤ 50	≤ 50	CC1(Oc2ccc3[nH]nc(-c4cc(N5CC(F)C(C)(C)C5)c(=O)n(C5CC5)n4)c3c2)CC1 (centres unmarked) [Compound 61, 2-cyclopropyl-4-(4-fluoro-3,3-dimethyl-pyrrolidin-1-yl)-6-[5-(1-methylcyclopropoxy)-1H-indazol-3-yl]pyridazin-3-one]
≥ 100	≥ 100	Cn1nc(-c2n[nH]c3ccc(OC4(C)CC4)cc23)cc(N2CCCNC(C)(C)C2)c1=O [Compound 67, 4-(3,3-dimethyl-1,4-diazepan-1-yl)-2-methyl-6-[5-(1-methylcyclopropoxy)-1H-indazol-3-yl]pyridazin-3-one]
≤ 50	≤ 50	Cn1nc(-c2n[nH]c3ccc(OC4(C)CC4)cc23)cc(N2CCCN(CC(C)(C)O)CC2)c1=O [Compound 84, 4-[4-(2-hydroxy-2-methyl-propyl)-1,4-diazepan-1-yl]-2-methyl-6-[5-(1-methylcyclopropoxy)-1H-indazol-3-yl]pyridazin-3-one]
≤ 50	≤ 50	Cn1nc(-c2n[nH]c3ccc(OC4(C)CC4)cc23)cc(N2CC(F)C(C)(C)C2)c1=O (centres unmarked) [Compound 55, 4-(4-fluoro-3,3-dimethyl-pyrrolidin-1-yl)-2-methyl-6-[5-(1-methylcyclopropoxy)-1H-indazol-3-yl]pyridazin-3-one]
≤ 50	≤ 50	Cn1nc(-c2n[nH]c3ccc(OC4(C)CC4)cc23)cc(N2CC(O)C(C)(C)C2)c1=O (centres unmarked) [Compound 62, 4-(4-hydroxy-3,3-dimethyl-pyrrolidin-1-yl)-2-methyl-6-[5-(1-methylcyclopropoxy)-1H-indazol-3-yl]pyridazin-3-one]
≤ 50	≤ 50	CC(C)N1CCCN(c2cc(-c3n[nH]c4ccc(OC5(C)CC5)cc34)nn(C)c2=O)CC1 [Compound 96, 4-(4-isopropyl-1,4-diazepan-1-yl)-2-methyl-6-[5-(1-methylcyclopropoxy)-1H-indazol-3-yl]pyridazin-3-one]
≤ 50	≤ 50	Cn1nc(-c2n[nH]c3ccc(OC4(C)CC4)cc23)cc(N2CCOCC(CO)C2)c1=O (centres unmarked) [Compound 88, 4-[6-(hydroxymethyl)-1,4-oxazepan-4-yl]-2-methyl-6-[5-(1-methylcyclopropoxy)-1H-indazol-3-yl]pyridazin-3-one]
≤ 50	≤ 50	Cn1nc(-c2n[nH]c3ccc(OC4(C)CC4)cc23)cc(N2CCC(O)C(F)CC2)c1=O (centres unmarked) [Compound 82, 4-(4-fluoro-5-hydroxy-azepan-1-yl)-2-methyl-6-[5-(1-methylcyclopropoxy)-1H-indazol-3-yl]pyridazin-3-one]
≥ 100	≥ 100	Cn1nc(-c2n[nH]c3ccc(OC4(C)CC4)cc23)cc(N2CCC(C)(C)NC(C)(C)C2)c1=O [Compound 68, 2-methyl-6-[5-(1-methylcyclopropoxy)-1H-indazol-3-yl]-4-(3,3,5,5-tetramethyl-1,4-diazepan-1-yl)pyridazin-3-one]
